Experimental data: US20250161312A1, “A METHOD FOR THE TREATMENT OF CHEMOTHERAPEUTIC DRUG-INDUCED NEPHROTOXICITY” (INSTITUT NATIONAL DE LA SANTÉ ET DE LA RECHERCHE MÉDICALE, priority 2022, published 2025)

Key:
[1] = molecular target: T1, A1 receptor (Rattus norvegicus, UniProt P25099); conditions: rodent models, blockade of A1 receptor; cited from earlier work
T1 construct: host or cells: rodent (rat) in vivo models
T1 sequence (P25099 1-326): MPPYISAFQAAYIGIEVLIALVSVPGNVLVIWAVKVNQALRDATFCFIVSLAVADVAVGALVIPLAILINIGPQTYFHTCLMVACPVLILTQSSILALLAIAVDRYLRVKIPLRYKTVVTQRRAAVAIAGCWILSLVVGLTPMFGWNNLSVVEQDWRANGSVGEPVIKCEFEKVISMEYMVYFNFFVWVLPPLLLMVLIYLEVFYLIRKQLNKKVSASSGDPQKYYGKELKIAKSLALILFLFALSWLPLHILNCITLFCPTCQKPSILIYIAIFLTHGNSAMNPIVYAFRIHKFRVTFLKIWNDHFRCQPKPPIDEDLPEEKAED

[2] = system: mouse model; assay: MSX-3 in cisplatin-induced kidney injury mouse model; assay type: in vivo; conditions: vs. cisplatin
Description: FIG. 9. […] (A) BUN quantification. (B) Gene expression of the inflammatory marker Tnfa.

[3] = both in vitro and in vivo; cited from earlier work
[4] = system: C57BL6/J mice; assay: Sub-chronic cisplatin-induced kidney injury model; assay type: in vivo; conditions: cisplatin 3 mg/kg for six days
Method: FIG. 1. Schematic representation of the different animal procedures. (A) Acute cisplatin-induced kidney injury. […] (B) Sub-chronic cisplatin-induced kidney injury. […] (C) KW-6002 administration schedule in the acute model. […] (D) KW-6002 administration schedule in the sub-chronic model.
Animal experiments were adapted from 63-64. Animal procedures were performed in 8 to 10 weeks old male C57B16/J mice (Janvier Labs). Mice were fed a laboratory standard diet with water and food ad libitum and were kept under constant environmental conditions with a 12-hour light-dark cycle. Istradefylline (KW-6002; Tocris) was dissolved in a carrier solution consisting in 15% DMSO, 15% cremophor (Sigma), 70% saline solution (vehicle). Cisplatin (Accord Healthcare) was dissolved in saline solution. […] Three days after this single injection, animals were sacrificed by cervical dislocation (FIG. 1A).
Prior sacrifice by cervical dislocation, retro-orbital blood samples were collected in heparinized tubes and centrifuged for 10 min at 2000 rpm at room temperature. Renal function was assessed by Blood urea nitrogen (BUN) measurement using a AU480 Chemistry Analyzer (Beckman Coulter). At the time of sacrifice, kidneys or LLC1 tumors were harvested and stored in either “RNA later” solution (Thermo Fisher), 4% neutral buffered formalin or snap-frozen in liquid nitrogen.
Formalin-fixed and paraffin-embedded sections (3 μm thick) were stained with Hematoxylin and Eosin (Sigma Aldrich) or Periodic Acid-Schiff (Sigma-Aldrich). Slices were scored by a nephropathologist in a blinded manner. A kidney injury score grading scale from 0 to 5 was used to assess the severity of the injury as follow: 0=no lesions, 1=minimal injury characterized by occurrence of necrosis and debris; 2=mild injury with single cell necrosis, pyknotic cells, and apoptosis; 3=moderate injury characterized by tubular distension, vacuolation, and some cellular debris, 4=severe injury with occasional hyaline casts observed, patchy epithelial necrosis in all segments, loss of epithelial lining; and 5=very severe injury characterized by extensive tubular epithelial necrosis in all segments, loss of epithelial layer from many tubules widespread intraluminal cellular debris, and frequent hyaline casts particularly prominent in the medullary region (67).
Total RNA from kidney samples was extracted with phenol/chloroform and subsequently precipitated in isopropanol as described previously (71). Total RNA from cultured renal cells was extracted using RNeasy Mini kit (Qiagen) following manufacturer's recommendations.
Reverse transcription was performed on 1 μg of RNA using high-capacity cDNA reverse transcription kit (Thermo Fisher), according the manufacturer's recommendation. Real time PCR was performed on a StepOne device using Taqman Gene Expression Master Mix (Thermo Fisher), following manufacturer's recommendations. […]

[5] = system: kidney mouse sections; assay: Red Oil staining of kidney mouse sections; assay type: in vivo; conditions: cisplatin alone
Method: FIG. 6. KW6002 alleviates the cisplatin-induced nephrotoxicity associated with apoptosis, lipid metabolism, and oxidative stress. (A) Tail moment assessed by comet assay; 50 cells/condition were analyzed. (B and C) KW6002 attenuates cisplatin-induced renal lipid accumulation, assessed by Red Oil staining. […] Results are the mean±SEM (n=6-9 mice/group). (F-H) KW6002 attenuated cisplatin-induced oxidative stress in RPTEC/hTERT1 cells. (F and G) Gene expression of Nrf2 (F) and HO1 (G). […] Results are the mean±SEM (n=3 independent experiments).
10 μm frozen kidney mouse sections were fixed with ethanol (60%) then incubated for 15 min with Oil Red O Solution (Fisher Biotech) dissolved in isopropanol. After several washes with ddH2O, samples were incubated 3 min with hematoxylin. Lipid droplets are stained in red whereas nuclei appeared blue. […] RPTEC/hTERT cells were fixed with ethanol (60%) then incubated for 15 min with Oil Red O Solution. The cells were washed three times with ddH2O and incubated 3 min with hematoxylin. Coverslips were rinsed with H2O before mounting on microscope slides using glycerol gelatin aqueous slide mounting medium (Sigma). Quantifications were performed blindly using ImageJ software. […] The resulting red color images were quantified using a custom threshold (0.173 for RPTEC/hTERT cells and 0.140 for kidney stainings).

[6] = system: kidney transcriptome; assay: RNA-Seq of kidney, sub-chronic protocol; assay type: in vivo, mice; conditions: adjusted p-value<0.01, log 2 fold change±1
Method: RNA-seq libraries (n=5-6/group) were generated from 500 ng of total RNA using Illumina® TruSeq® Stranded mRNA Library Prep Kit v2. Briefly, following purification with poly-T oligo attached magnetic beads, the mRNA was fragmented using divalent cations at 94° C. for 2 min. The cleaved RNA fragments were copied into first-strand cDNA using reverse transcriptase and random primers. Strand specificity was achieved by replacing dTTP with dUTP during the second-strand cDNA synthesis by DNA polymerase I and RNase H. Following the addition of a single “A” base and the subsequent ligation of the adapter on double-stranded cDNA fragments, the products were purified and enriched with PCR [30 s at 98° C.; (10 s at 98° C., 30 s at 60° C., 30 s at 72° C.)×12 cycles; 5 min at 72° C.] to create the cDNA library. Surplus PCR primers were further removed by purification using AMPure XP beads (Beckman Coulter), and the final cDNA libraries were checked for quality and quantified using capillary electrophoresis. Sequencing was performed on the Illumina® Genome Hiseq4000 as single-end 50 base reads following Illumina's instructions. Reads were mapped onto the mm 10 assembly of Mus musculus genome using STAR v2.5.3a (72). Only uniquely aligned reads were kept for further analyses. Quantification of gene expression was performed using HTSeq-count v0.6.1p1 (73) and gene annotations from Ensembl releases 90 and 102 and “union” mode. Read counts were normalized across libraries with the method proposed by Ander et al. (74). Comparisons of interest were performed using the test for differential expression proposed by Love et al. (75) and implemented in the DESeq2 Bioconductor library (v1.16.1). Resulting p-values were adjusted for multiple testing using the Benjamini and Hochberg method (76). RNA-sequencing was performed by Plateforme GenomEast, Institut de Génétique et de Biologie Moléculaire et Cellulaire, UMR 7104 CNRS-UdS/INSERM U964 (Illkirch, France). Sequencing data that support the findings of this study have been deposited in GEO with the primary accession code GSE179247. […]

CCCn1c(=O)c2[nH]c(C3CCCC3)nc2n(CCC)c1=O [8-cyclopentyl-1,3-dipropylxanthine]
protection against cisplatin nephrotoxicity [1]: protective against cisplatin nephrotoxicity

CCCn1c(=O)c2[nH]c(C34CC5CC(CC3C5)C4)nc2n(CCC)c1=O [KW-3902]
protection against cisplatin nephrotoxicity [1]: protective against cisplatin nephrotoxicity

C#CCn1c(=O)c2c(nc(/C=C/c3cccc(OC)c3)n2C)n(CCCOP(=O)([O-])[O-])c1=O.[Na+].[Na+] [MSX-3]
BUN ([2]; FIG. 9A): significant reduction of BUN | mRNA levels of Tnfα ([2]; FIG. 9B): lower mRNA levels of Tnfα

Cn1c(=O)c2c(ncn2C)n(C)c1=O [caffeine]
anti-tumoral effect of cisplatin [3]: potentiate the anti-tumoral effect of cisplatin

N.N.[Cl][Pt][Cl] [cisplatin, cis-diamminedichloroplatinum (II)]
histological lesions [4]: severe histological lesions | mRNA expression of Il6 [4]: increased mRNA expression | mRNA expression of Tnf [4]: increased mRNA expression | mRNA levels of KIM-1 [4]: significantly increased | mRNA levels of NGAL [4]: significantly increased | blood urea nitrogen (BUN) levels ([4]; data not shown): increased blood urea nitrogen (BUN) levels | lipid droplets in kidney [5]: induced an accumulation of lipid droplets | genes downregulated in kidney [6]: 2299 genes | genes upregulated in kidney [6]: 2350 genes | genes whose expression is impacted in kidney [6]: 4649 genes

CCCn1c(=O)c2nc(C34CCC(CCC(=O)O)(CC3)CC4)[nH]c2n(CCC)c1=O [tonapofylline]
protection against cisplatin nephrotoxicity [1]: protective against cisplatin nephrotoxicity
